Literature values as cited in US20020177579A1, “Extended release formulation of water-soluble drugs” (priority 2000, published 2002).
Where a name gives a salt, the structure may show the parent alone.

Tests used:
[1] = for Fraction Absorbed: in vivo

Fraction Absorbed [1]	Solubility (in words)	also measured	SMILES
37%	–	Solubility: >100 mg/mL	CCOC(=O)[C@H](CCc1ccccc1)N[C@H]1CCc2ccccc2N(CC(=O)O)C1=O.Cl [Benazepril HCI]
–	–	solubility in 100% ethanol (100% ethanol): slightly soluble; solubility in benzene (benzene): not soluble; solubility in chloroform (chloroform): freely soluble; solubility in methanol (methanol): freely soluble; solubility in water (water): freely soluble; absolute bioavailability ([1]; compared to intravenous administration): about 40%	COc1ccc([C@@H]2Sc3ccccc3N(CCN(C)C)C(=O)[C@@H]2OC(C)=O)cc1 [Diltiazem hydrochloride, 1,5-benzothiazepin-4 (5H) one, 3-(acetyloxy)-5-[2-(dimethylamino)ethyl]-2,3-dihydro-2-(4-methoxyphenyl)-, monohydrochloride, (+)-cis-4]
36%	–	Solubility: 100 mg/mL	CCC(=O)O[C@@H](O[P@](=O)(CCCCc1ccccc1)CC(=O)N1C[C@H](C2CCCCC2)C[C@H]1C(=O)O)C(C)C [Fosinopril Sodium]
˜90%	“Readily	–	CN1C2CCCC1CC(NC(=O)c1nn(C)c3ccccc13)C2 (centres unmarked) [Granisetron HCI]
–	“Freely	–	COCCc1ccc(OCC(O)CNC(C)C)cc1 (centres unmarked) [Metoprolol Succinate]
60%	“Freely	–	CCOC(=O)[C@H](CCc1ccccc1)N[C@@H](C)C(=O)N1Cc2ccccc2C[C@H]1C(=O)O [Quinapril HCI]
15%	“Readily	–	CNS(=O)(=O)Cc1ccc2[nH]cc(CCN(C)C)c2c1 [Sumatriptan Succinate]
